Measured values as given in patent publication US4925797A, “Process for the decomposition of acrylamide” (Imperial Chemical Industries plc, priority 1986, dated 1990).

Test system: Methylophilus methylotrophus amidase (acylamide amido hydrolase E.C. No. 3-5-1-4)
Test: Methylophilus methylotrophus amidase properties (Km)
Type: biochemical
Details: amidase induced in Methylophilus methylotrophus; substrate as named

For CC(N)=O [Acetamide], the Km was 0.2 mM.
With C=CC(N)=O [Acrylamide] the Km was 10 mM.
